The target in this assay is CDK-2 (Homo sapiens, UniProt P24941). Kind of assay: Fluorescence polarization displacement assay (inhibitory effectiveness toward CDK-2). The assay is classed as binding. As for the experimental part: Fluorescence Polarization Assay
Binding assays were performed in a 384 well Costar NBS coated plate. […] The concentration of BMS-Alexa Fluor647 was 50 nM. Serial dilutions of compounds were added to 12 wells. The final buffer concentration was 10 mM Hepes, pH 7.5, 150 mM NaCl, and 1 mM DTT. Samples were incubated at room temperature for 15 minutes and then read in an Analyst HT instrument using an excitation and emission wavelength of 580 and 680 nm, respectively.

Setting [1] is: inhibitory effectiveness toward CDK-2, read-out: IC50.

Each structure is given as a SMILES string. Where two headings read alike, the source gives them in different places.

As a reminder, the IC50 is the concentration needed to halve the response being measured. On to `COC[C@H](Cc1ccc(O)cc1)NCc1cc(C(=O)OCCO)c2cc(-c3cccc(C(F)(F)F)c3)ccc2n1` [Compound 173], for which the IC50 under setting [1] is more than 40 µM.

With `COC[C@H](Cc1ccc(O)cc1)NC(=O)c1cc(C(=O)O)c2cc(COc3ccc(Cl)cc3)ccc2n1` [Compound 199], the IC50 under setting [1] was more than 40 µM.

The compound `COC(=O)[C@H](Cc1ccc(O)cc1)NC(=O)c1cc(C(=O)O)c2cc(-c3ccccc3)ccc2n1` [Compound 73] returned an IC50 (IC50) of less than 1 µM.

`COC(=O)[C@H](Cc1ccccc1)NC(=O)c1cc(C(=O)O)c2cc(-c3cccs3)ccc2n1` [Compound 155]: the IC50 under setting [1] is more than 40 µM. Same read-out and setting: the value for `CC(C)(C)S(=O)(=O)NCc1cc(C(=O)N[C@H](CN)Cc2ccc(O)cc2)nc2ccc(C#Cc3ccccn3)cc12` [Compound 225] was more than 40 µM. Same read-out and setting: the value for `COC[C@H](Cc1ccc(O)cc1)NC(=O)c1cc(C(=O)O)c2cc(CCCCO)ccc2n1` [Compound 189] was more than 40 µM. On the same count and under the same terms, as for `CCCCCCCc1ccc2nc(C(=O)N[C@H](COC)Cc3ccc(O)cc3)cc(C(=O)O)c2c1` [Compound 20], the figure is less than 1 µM; as for `COC[C@H](Cc1ccc(O)cc1)NCc1cc(C(=O)OCC(O)CO)c2cc(-c3cccc(C(F)(F)F)c3)ccc2n1` (stereo partly drawn) [Compound 174], more than 40 µM. Consider `COC[C@H](Cc1ccc(O)cc1)NC(=O)c1cc(C(=O)O)c2cc(C#CCCO)ccc2n1` [Compound 186], for which, under setting [1], the IC50 was more than 40 µM.

For `O=C(N[C@@H](Cc1ccc(O)cc1)c1nnn[nH]1)c1cc(C(=O)O)c2cc(-c3cccc(C(F)(F)F)c3)ccc2n1` [Compound 170], the IC50 under setting [1] is more than 40 µM.

As to `CCCCCC#Cc1ccc2nc(C(=O)N[C@H](COC)Cc3ccc(O)cc3)cc(C(=O)O)c2c1` [Compound 19], the IC50 under setting [1] is less than 1 µM. As for `COC(=O)[C@H](Cc1ccc(F)cc1)NC(=O)c1cc(C(=O)O)c2cc(-c3cccc(C(F)(F)F)c3)ccc2n1` [Compound 109], where the note is “IC50”, the IC50 lay in the range of 1 to 40 µM.

`COC(=O)[C@H](Cc1ccc(O)cc1)NC(=O)c1cc(C(=O)O)c2cc(-c3cccc(O)c3)ccc2n1` [Compound 120]: under setting [1], the IC50 lay in the range of 1 to 40 µM. Take `CCCCC/C=C/c1ccc2nc(C(=O)N[C@H](COC)Cc3ccc(O)cc3)cc(C(=O)O)c2c1` [Compound 21]: the IC50 under setting [1] was less than 1 µM. As for `COC(=O)[C@H](Cc1ccc(OC)cc1)NC(=O)c1cc(C(=O)O)c2cc(-c3cccc(C(F)(F)F)c3)ccc2n1` [Compound 162], the IC50 (IC50) was more than 40 µM.

`COC[C@H](Cc1ccc(O)cc1)NC(=O)c1cc(C(=O)O)c2cc(-c3cccc(CN4CC[C@@H](O)C4)c3)ccc2n1` [Compound 192]: under setting [1], the IC50 was more than 40 µM.

In the case of `CCCCCCc1ccc2nc(C(=O)N[C@@H](Cc3ccc(O)cc3)C(=O)OC)cc(C(=O)O)c2c1` [Compound 4], the IC50 (IC50) was less than 1 µM. For the compound `Cc1cnc([C@H](Cc2ccc(O)cc2)NCc2cc(C(=O)O)c3cc(-c4cccc(C(F)(F)F)c4)ccc3n2)o1` [Compound 45], the IC50 under setting [1] was less than 1 µM. Under “IC50”, `COC(=O)[C@H](Cc1cccc(O)c1)NC(=O)c1cc(C(=O)O)c2cc(-c3cccc(C(F)(F)F)c3)ccc2n1` [Compound 163] displayed an IC50 of more than 40 µM. For `CO/N=C\[C@H](Cc1ccc(O)cc1)NC(=O)c1cc(C(=O)O)c2cc(-c3cccc(C(F)(F)F)c3)ccc2n1` [Compound 59], the IC50 under setting [1] was less than 1 µM.

As to `COC[C@H](Cc1ccc(O)cc1)NC(=O)c1cc(C(=O)O)c2cc(/C=C/c3ccc(Cl)cc3)ccc2n1` [Compound 16], for the setting “IC50”, the IC50 is less than 1 µM. For `COC(=O)[C@H](Cc1ccc(O)cc1)NC(=O)c1cc(C(=O)O)c2cc(-c3ccc(OC(F)(F)F)cc3)ccc2n1` [Compound 3], the IC50 under setting [1] is less than 1 µM. Consider `COC(=O)[C@H](Cc1ccc(O)cc1)NC(=O)c1cc(C(=O)O)c2cc(CCc3ccc(Cl)cc3)ccc2n1` [Compound 9], for which, where the note is “IC50”, the IC50 was less than 1 µM. `COC[C@H](Cc1ccc(O)cc1)NCc1cc(C(=O)OCCN(C)C)c2cc(-c3cccc(C(F)(F)F)c3)ccc2n1` [Compound 175]: the IC50 under setting [1] was more than 40 µM.

With `COC[C@H](Cc1ccc(O)cc1)NC(=O)c1cc(C(=O)O)c2cc(C#CCCn3cccn3)ccc2n1` [Compound 224], under setting [1], the IC50 is more than 40 µM. In the case of `COC[C@H](Cc1ccc(O)cc1)NCc1cc(C(=O)OC[C@@H](N)C(C)C)c2cc(-c3cccc(C(F)(F)F)c3)ccc2n1` [Compound 176], the IC50 under setting [1] is more than 40 µM.

Take `COC(=O)[C@H](Cc1ccc(O)cc1)NC(=O)c1cc(C(=O)O)c2cc(-c3cc(Cl)cc(Cl)c3)ccc2n1` [Compound 39]: the IC50 under setting [1] was less than 1 µM. The same measure, in the same setting: as for `COC(=O)[C@H](Cc1ccc(O)cc1)NC(=O)c1cc(C(=O)O)c2cc(-c3ccsc3)ccc2n1` [Compound 90], the figure is 1 to 40 µM; as for `COC[C@H](Cc1ccc(O)cc1)NC(=O)c1cc(C(=O)O)c2cc(-c3cccc(C(F)(F)F)c3)ccc2n1` [Compound 13], less than 1 µM; as for `COC[C@H](Cc1ccc(O)cc1)NC(=O)c1cc(C(=O)O)c2cc(OCc3ccc(C(F)(F)F)cc3)ccc2n1` [Compound 55], less than 1 µM. For `COC(=O)[C@@H](NC(=O)c1cc(C(=O)O)c2cc(-c3cccc(C(F)(F)F)c3)ccc2n1)c1ccc(O)cc1` [Compound 122], the IC50 under setting [1] was 1 to 40 µM. The compound `COC(=O)[C@@H](Cc1ccc(O)cc1)NC(=O)c1cc(C(=O)O)c2cc(-c3cccc(C(F)(F)F)c3)ccc2n1` [Compound 169] gave a half-inhibitory concentration (IC50) (IC50) of more than 40 µM.

Consider `COC(=O)[C@H](Cc1ccc(O)cc1)NC(=O)c1cc(C(=O)O)c2cc(/C=C/c3ccc(Cl)cc3)ccc2n1` [Compound 7], for which the IC50 under setting [1] is less than 1 µM.

The record behind these values is patent US7511063B2, “High affinity quinoline-based kinase ligands” (Schering Corporation, priority 2006, dated 2009).
